From US20230157996A1, “SMALL-MOLECULE INHIBITOR TARGETING EB VIRUS NUCLEAR ANTIGEN PROTEIN, PREPARATION METHOD AND USE THEREOF” (priority 2020, published 2023)

system: C666-1 cells; assay: C666-1 cell viability single concentration (50 μM) inhibition rate (Resazurin); assay type: cell-based; details: Homo sapiens, C6661, 72 h, 50 μM compound, 72 hours, C666-1 cells; read-out: C666-1 cell viability single concentration (50 μM) inhibition rate, Ratio* (Inh %)
Outline: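 EBV-positive C666-1 cells (5×10^3/well), pre-cultured 24 h, were exposed to compound at 50 μmol/L final for 72 h at 37° C, 5% CO2, in duplicate. Viability by resazurin (3 h, ex 560/em 590 nm); inhibition rate computed relative to DMSO control and medium-only blank.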

SMILES | inhibition at 50 µM
CCNC(=S)OC1CN(c2cccc(C(=O)O)c2-n2cccc2)C1 [Example 161, 3-(3-((ethylthiocarbamoyl)oxy)azetidin-1-yl)-2-(1H-pyrrol-1-yl)benzoic acid] | < 10%
COC(=O)c1cccc(N2CC(OC(=S)Nc3ccc(Cl)cc3Cl)C2)c1-n1cccc1 [Example 162, Methyl 3-(3-(((2,4-dichlorophenyl)thiocarbamoyl)oxy)azetidin-1-yl)-2-(1H-pyrrol-1-yl)benzoate] | 10 to 30%
O=C(O)c1cccc(N2CC(OC(=S)Nc3ccc(Cl)cc3Cl)C2)c1-n1cccc1 [Example 163, 3-(3-(((2,4-dichlorophenyl)thiocarbamoyl)oxy)azetidin-1-yl)-2-(1H-pyrrol-1-yl)benzoic acid] | < 10%
COC(=O)c1cccc(N2CC(NC(=O)NC3CC3)C2)c1-n1cccc1 [Example 164, Methyl 3-(3-(3-cyclopropylureido)azetidin-1-yl)-2-(1H-pyrrol-1-yl)benzoate] | < 10%
COC(=O)c1cccc(N2CC(NC(=O)Nc3ccc(Oc4ccccc4)cc3)C2)c1-n1cccc1 [Example 165, Methyl 3-(3-(3-(4-phenoxyphenyl)ureido)azetidin-1-yl)-2-(H-pyrrol-1-yl)benzoate] | 10 to 30%
COC(=O)c1cccc(N2CC(NC(=O)Nc3ccc(OC(F)(F)F)cc3)C2)c1-n1cccc1 [Example 166, Methyl 2-(1H-pyrrol-1-yl)-3-(3-(3-(4-(trifluoromethoxy)phenyl)ureido)azetidin-1-yl)benzoate] | > 50%
O=C(Nc1ccc(Oc2ccccc2)cc1)NC1CN(c2cccc(C(=O)O)c2-n2cccc2)C1 [Example 167, 3-(3-(3-(4-phenoxyphenyl)ureido)azetidin-1-yl)-2-(1H-pyrrol-1-yl)benzoic acid] | < 10%
O=C(Nc1ccc(OC(F)(F)F)cc1)NC1CN(c2cccc(C(=O)O)c2-n2cccc2)C1 [Example 168, 2-(1H-pyrrol-1-yl)-3-(3-(3-(4-(trifluoromethoxy)phenyl)ureido)azetidin-1-yl)benzoic acid] | < 10%
O=C(NC1CC1)NC1CN(c2cccc(C(=O)O)c2-n2cccc2)C1 [Example 169, 3-(3-(3-cyclopropylureido)azetidin-1-yl)-2-(1H-pyrrol-1-yl)benzoic acid] | < 10%
COC(=O)c1cccc(N2CC(NC(=O)Nc3cc(OC)cc(OC)c3)C2)c1-n1cccc1 [Example 170, Methyl 3-(3-(3-(3,5-dimethoxyphenyl)ureido)azetidin-1-yl)-2-(1H-pyrrol-1-yl)benzoate] | 10 to 30%
COc1cc(NC(=O)NC2CN(c3cccc(C(=O)O)c3-n3cccc3)C2)cc(OC)c1 [Example 171, 3-(3-(3-(3,5-dimethoxyphenyl)ureido)azetidin-1-yl)-2-(1H-pyrrol-1-yl)benzoic acid] | < 10%
CCNC(=S)NC1CN(c2cccc(C(=O)OC)c2-n2cccc2)C1 [Example 172, Methyl 3-(3-(3-ethylthioureido)azetidin-1-yl)-2-(1H-pyrrol-1-yl)benzoate] | 10 to 30%
CCNC(=S)NC1CN(c2cccc(C(=O)O)c2-n2cccc2)C1 [Example 173, 3-(3-(3-ethylthioureido)azetidin-1-yl)-2-(1H-pyrrol-1-yl)benzoic acid] | < 10%
COC(=O)c1cccc(N2CC(NC(=S)Nc3ccc(Cl)cc3)C2)c1-n1cccc1 [Example 174, Methyl 3-(3-(3-(4-chlorophenyl)thioureido)azetidin-1-yl)-2-(1H-pyrrol-1-yl)benzoate] | > 50%
O=C(O)c1cccc(N2CC(NC(=S)Nc3ccc(Cl)cc3)C2)c1-n1cccc1 [Example 175, 3-(3-(3-(4-chlorophenyl)thioureido)azetidin-1-yl)-2-(1H-pyrrol-1-yl)benzoic acid] | < 10%
COC(=O)c1cccc(N2CC(NS(=O)(=O)c3ccc(C)cc3)C2)c1-n1cccc1 [Example 176, Methyl 3-(3-((4-methylphenyl)sulfonamido)azetidin-1-yl)-2-(1H-pyrrol-1-yl)benzoate] | 10 to 30%
Cc1ccc(S(=O)(=O)NC2CN(c3cccc(C(=O)O)c3-n3cccc3)C2)cc1 [Example 177, 3-(3-((4-methylphenyl)sulfonamido)azetidin-1-yl)-2-(1H-pyrrol-1-yl)benzoic acid] | < 10%
COC(=O)c1cccc(N2CC(NC(=O)c3ccccc3)C2)c1-n1cccc1 [Example 178, Methyl 3-(3-benzamidoazetidin-1-yl)-2-(1H-pyrrol-1-yl)benzoate] | 10 to 30%
O=C(NC1CN(c2cccc(C(=O)O)c2-n2cccc2)C1)c1ccccc1 [Example 179, 3-(3-benzamidoazetidin-1-yl)-2-(1H-pyrrol-1-yl)benzoic acid] | < 10%
COC(=O)c1cccc(N2CC(NC(=O)c3ccccc3[N+](=O)[O-])C2)c1-n1cccc1 [Example 180, Methyl 3-(3-(2-nitrobenzamido)azetidin-1-yl)-2-(1H-pyrrol-1-yl)benzoate] | 30 to 50%
O=C(NC1CN(c2cccc(C(=O)O)c2-n2cccc2)C1)c1ccccc1[N+](=O)[O-] [Example 181, 3-(3-(2-nitrobenzamido)azetidin-1-yl)-2-(1H-pyrrol-1-yl)benzoic acid] | < 10%
COC(=O)c1cccc(N2CC(NS(=O)(=O)C3CC3)C2)c1-n1cccc1 [Example 182, Methyl 3-(3-(cyclopropylsulfonamido)azetidin-1-yl)-2-(1H-pyrrol-1-yl)benzoate] | 10 to 30%
O=C(O)c1cccc(N2CC(NS(=O)(=O)C3CC3)C2)c1-n1cccc1 [Example 183, 3-(3-(cyclopropylsulfonamido)azetidin-1-yl)-2-(1H-pyrrol-1-yl)benzoic acid] | < 10%
COC(=O)c1cccc(N2CC(N(Cc3ccccc3)S(=O)(=O)c3ccc(C)cc3)C2)c1-n1cccc1 [Example 184, Methyl 3-(3-((N-benzyl-4-methylphenyl)sulfonamido)azetidin-1-yl)-2-(1H-pyrrol-1-yl)benzoate] | < 10%
Cc1ccc(S(=O)(=O)N(Cc2ccccc2)C2CN(c3cccc(C(=O)O)c3-n3cccc3)C2)cc1 [Example 185, 3-(3-((N-benzyl-4-methylphenyl)sulfonamido)azetidin-1-yl)-2-(1H-pyrrol-1-yl) benzoic acid] | < 10%
O=C(O)c1cccc(-c2cn(-c3ccc(CO)cc3)nn2)c1-c1ccc2cc[nH]c2c1 [Example 186, 3-(1-(4-(hydroxymethyl)phenyl)-1H-1,2,3-triazol-4-yl)-2-(1H-indol-6-yl)benzoic acid] | < 10%
COC(=O)c1cccc(N2CC(Oc3ccc(O)cc3)C2)c1-n1cccc1 [Example 187, Methyl 3-(3-(4-hydroxylphenoxy)azetidin-1-yl)-2-(1H-pyrrol-1-yl)benzoate] | < 10%
O=C(O)c1cccc(N2CC(Oc3ccc(O)cc3)C2)c1-n1cccc1 [Example 188, 3-(3-(4-hydroxylphenoxy)azetidin-1-yl)-2-(1H-pyrrol-1-yl)benzoic acid] | < 10%
COC(=O)c1cccc(N2CC(Sc3ccc(C)cc3)C2)c1-n1cccc1 [Example 190, Methyl 2-(1H-pyrrol-1-yl)-3-(3-(p-tolylthio)azetidin-1-yl)benzoate] | < 10%
